From a melting point compilation (Tetko et al.; mined from patent text by program, amines drawn as free bases though some values may be those of a salt) come the findings set out here.

In general, melting point refers to the temperature of the solid-liquid transition. In turn, `CCNC(=O)Nc1n[nH]c2ccc(-c3ncccc3Cl)cc12` had a melting point of 178 to 180 °C.
The compound `Cc1cn(C2CC(OP(N)O)C(CO[Si](C)(C)C(C)(C)C)O2)c(=O)[nH]c1=O` (stereo not given) came in with a melting point of 68 to 70 °C.
Then `CC(=O)N[C@H](C(=O)N1C[C@@H]2C(=O)CCC(c3ccccc3)(c3ccccc3)[C@@H]2C1)c1ccccc1`, with 190 °C.
Then `Cc1coc2ncnc(N)c12`, with 240 to 242 °C; and `COCCn1c(SC)nc(-c2ccc(F)cc2)c1-c1ccnc(Nc2ccccc2)c1`, with 108 °C; and `O=C1CC2CCc3ccccc3C2=NN1c1ccccc1O` (stereo not given), with 221 to 222 °C.
Regarding `O=S(=O)(c1ccccc1)N1CCC(=C(c2ccc(F)cc2)c2ccc(F)cc2)CC1`, the melting point was 90 to 92.5 °C.
Then `Cc1cc(SCc2ccc(OCc3ccc(C(F)(F)F)cc3)cc2)c(Cl)cc1OCC(=O)O`, with 142 to 143 °C.
`CCOC(=O)C(=O)Cc1ccnc2c1C(=O)c1ccccc1-2`: the melting point lay in the range of 196 to 197 °C.
The compound `Oc1nn(Cc2ccccc2)cc1CCCC1OCCO1` gave a melting point of 93 to 94 °C.
In turn, `CC(=O)c1cccc(Oc2cccc(Cl)n2)c1` registered a melting point of 82 to 83 °C.
`COc1cc(Nc2c(C#N)cnc3cc(-c4cccc5ccccc45)ccc23)c(Cl)cc1Cl` registered a melting point of 192 to 193 °C.
`CC(C)(C)Nc1cc(N2CCNCC2)nc(N2CCCC2)n1` gave a melting point of 140 to 145 °C.
`CC(C)(C)n1cc(C#N)c2cc([N+](=O)[O-])cnc21` displayed a melting point of 216 to 218 °C.
The compound `O=C(O)CCc1ccc(C(=O)NCc2ccccn2)cc1` showed a melting point of 83.8 °C.
For the compound `Cn1c(=O)c2cccnc2n(C)c1=O`, the melting point lay within 160 to 161 °C.
The compound `CCOC(=O)C=CC(=O)N(CC(C)(C)C)c1sc(Cl)cc1C(=O)c1ccccc1Cl` returned a melting point of 79 to 81 °C.
In the case of `COc1ccc(Cc2oc3c(c2C)C(=O)C(C)=C(C)C3=O)cc1` it was 111 to 113 °C; in that of `COC(=O)c1cccc(C=CC(=O)c2cc(OC)ccc2OC)c1`, 108 to 110 °C.
As for `O=C1NCc2c3c(c4[nH]c5ccccc5c4c21)Cc1ccc(C=Cc2ccccn2)cc1-3`, the melting point was > 320 °C.
In the case of `CCn1cc(C(=O)O)c(=O)c2ccc(N3CCN(c4ncccn4)CC3)c(OC(F)F)c21` it was > 300 °C; in that of `O=C1NC(=C2CCC2)Sc2ccccc21`, 147 to 149 °C; in that of `Cc1cc(C#C[Si](C(C)C)(C(C)C)C(C)C)n(-c2ccc([N+](=O)[O-])cc2)n1`, 71 to 73 °C.
In turn, `O=S(=O)(c1cc(Cl)cc(Cl)c1)n1ccc2c(N3CCN(Cc4ccccc4)CC3)cccc21` registered a melting point of 162 to 163 °C.
For `Cc1ccccc1Sc1ccc2c(c1)CCC1N(C)C(=O)CCC21C` (single isomer, unassigned; (+)), the melting point was in the range of 105 to 106 °C.
In turn, `CN1CCC(Nc2nc3ccccc3n2Cc2ccccc2)CC1` returned a melting point of 94 to 102 °C.
As for `c1ccc(CN2CCN(c3nc4c(c(N5CCOCC5)n3)SCCC4)CC2)cc1`, the melting point worked out at 125 °C.
In the case of `O=C(Nc1ccc2c(c1)S(=O)(=O)NC1CCCN21)c1ccccc1` (stereo not given) it was 293 °C; in that of `COc1ccc(S(=O)(=O)Nc2cccnc2Nc2ccccc2)cc1`, 172 to 173 °C.
Compound `Cc1ccc(-n2cnc(OC(C)C(=O)O)n2)cc1` (stereo not given) came in with a melting point of 163 to 165 °C.
Then `CCC(NCCN)(C(=O)O)c1cccc(Cl)c1` (stereo not given), with 207 to 208 °C; and `COC(=O)N(Oc1cc(Cl)cc(Cl)c1)C(=O)N(C)C(C)C`, with 67 to 69 °C; and `O=C(OCC1=CCN(Cc2c[nH]c3cccnc23)CC1)c1ccccc1`, with 126 °C.
In the case of `O=C(c1cc(-c2cccc(Cl)c2)c(=O)n2c1-c1c(Cl)cccc1C2)N1CCC[C@@H]1CO` it was 228 to 230 °C.
In the case of `Cc1cc(-c2ccc(C(F)(F)F)cc2)nc(-c2cccc(-c3cccc(S(N)(=O)=O)c3)c2)n1`, the melting point turned out to be 224 °C.
In the case of `COc1cc(Nc2c(C#N)cnc3cc(-c4ccc(CN5CCN(C)CC5)s4)ccc23)c(Cl)cc1Cl` it was 206 to 208 °C; in that of `O=[N+]([O-])c1ccc(Oc2cc(Cl)ncn2)cc1`, 125 to 127 °C; in that of `CNC1C(O)CC2C3CCc4cc(OC(=O)C(C)(C)C)ccc4C3CCC21C` (stereo not given), 196 to 199 °C.
Consider `N#Cc1cc(C(=O)NNC(=O)c2occ(-c3ccccc3)c2-c2ccccc2)ccc1OC(=O)c1ccccc1`, for which the melting point fell in the range of 163 to 167 °C.
In the case of `CC(C)(C)OC(=O)Nc1ccc(C(=O)O)c2ccccc12`, the melting point is 194 to 195 °C.
As for `CNC1C=Cc2cc(O)ccc2CC1` (stereo not given), the melting point was found to be 152 °C.
`OCc1cc(C2CN(CCCCCCOCCCCc3ccccc3)CO2)ccc1O` (racemic) showed a melting point of 72 to 75 °C.
As for `COc1cc(C(F)(F)F)nn1-c1ccc(NC(=O)c2ccncc2F)cc1`, the melting point fell in the range of 160 to 161 °C.
In the case of `COc1c(N2C[C@H](N)[C@H]3OCC[C@H]32)c(F)cc2c(=O)c(C(=O)O)cn(C3CC3)c12` (relative stereo), the melting point was 187 to 189 °C.
`CCOCc1nc2c(N)nc3cc(O)ccc3c2n1CC(C)C`: the melting point was > 265 °C.
Turning to `CC(C)(C)CNc1nc(Cl)cc(Cl)n1`, the melting point is 63 to 66 °C.
Take `COC(=O)CCCC#Cc1cc(Cl)ccc1NS(=O)(=O)c1ccc2nc(N)oc2c1`: the melting point was 135 °C.
On to `COC(=O)c1cn(-c2ccc(F)cc2)c(-c2ccc(Cl)cc2)cc1=O`, for which the melting point lay within 250 to 254 °C.
Take `COc1cc(N)ccc1CN1C(=O)C(C)(c2ccccc2Cl)c2cc(Cl)ccc21` (stereo not given): the melting point was found to be 232 °C.
For the compound `CCOC(=O)CCCN=c1sc2ccccc2s1`, the melting point lay in the range of 35 to 36 °C.
